“And” between values parts separate entries of the source, which are not always exact repeats. Equal entries are not always repeated. Toxic doses and inconclusive results are not listed.

Here are results for 19 compounds from PubChem BioAssay AID328 (DTP/NCI, 2004).

For this assay, the system named is BDF1 mice, P388 leukemia ip, median survival T/C. Description: NCI In Vivo Anticancer Drug Screen. Data for tumor model P388 Leukemia (intraperitoneal) in B6D2F1 (BDF1) mice. Particulars: endpoint: median survival time, higher = longer survival. The procedure, abridged: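 In tumour-bearing mice, survival after compound treatment is set against the vehicle group and given as a quotient.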

Where [1] appears, read: dose: 100.0 mg/kg/injection, schedule: Q04DX003 (ip), vehicle: saline with Tween-80.
Where [2] appears, read: dose: 200.0 mg/kg/injection, schedule: Q04DX003 (ip), vehicle: saline with Tween-80.
The mark [3] stands for this setting: dose: 400.0 mg/kg/injection, schedule: Q04DX003 (ip), vehicle: saline with Tween-80.
The mark [4] stands for this setting: dose: 100.0 mg/kg/injection, schedule: Q01DX009 (ip), vehicle: saline with Tween-80.
[5] abbreviates: dose: 200.0 mg/kg/injection, schedule: Q01DX009 (ip), vehicle: saline with Tween-80.
[6] abbreviates: dose: 50.0 mg/kg/injection, schedule: Q01DX009 (ip), vehicle: saline with Tween-80.
Setting [7] is: dose: 12.5 mg/kg/injection, schedule: Q04DX003 (ip), vehicle: saline.
The mark [8] stands for this setting: dose: 25.0 mg/kg/injection, schedule: Q04DX003 (ip), vehicle: saline.

For `O=C(O)CCSCCC(=O)O`, the T/C runs as follows: (dose: 100.0 mg/kg/injection, schedule: Q01DX001 (ip), vehicle: Klucel (hydroxypropylcellulose) (HPC)) 104 % of control; (dose: 100.0 mg/kg/injection, schedule: Q04DX003 (ip), vehicle: Klucel (hydroxypropylcellulose) (HPC)) 104 % of control; (dose: 200.0 mg/kg/injection, schedule: Q01DX001 (ip), vehicle: Klucel (hydroxypropylcellulose) (HPC)) 108 % of control; (dose: 200.0 mg/kg/injection, schedule: Q04DX003 (ip), vehicle: Klucel (hydroxypropylcellulose) (HPC)) 100 % of control; (dose: 400.0 mg/kg/injection, schedule: Q01DX001 (ip), vehicle: Klucel (hydroxypropylcellulose) (HPC)) 116 % of control; (dose: 400.0 mg/kg/injection, schedule: Q04DX003 (ip), vehicle: Klucel (hydroxypropylcellulose) (HPC)) 113 % of control.
On to `COC(=O)c1ccccc1NCCCC(=O)O`, for which the T/C by setting is: under setting [1], 91 % of control; under setting [2], 108 % of control; under setting [3], 100 % of control.
Regarding `O=C1CCCCC1Oc1ccccc1` (centres undefined), the T/C was 95 % of control under setting [4]; 95 % of control under setting [1]; 91 % of control under setting [5]; 100 % of control under setting [2]; 100 % of control under setting [3].
With `O=C(Nc1cc(Cl)cc(Cl)c1)C(Cl)Cl`, the T/C (dose: 50.0 mg/kg/injection, schedule: Q01DX010 (ip), vehicle: carboxymethylcellulose (CMC)) is 95 % of control; the T/C (dose: 100.0 mg/kg/injection, schedule: Q01DX010 (ip), vehicle: carboxymethylcellulose (CMC)) was 110 % of control; the T/C (dose: 200.0 mg/kg/injection, schedule: Q01DX010 (ip), vehicle: carboxymethylcellulose (CMC)) was 105 % of control.
Turning to `COc1ccc(/C(=C\S(C)(=O)=O)c2cccs2)cc1`, the T/C is, setting by setting: under setting [6], 88 % of control; under setting [4], 91 % of control; under setting [5], 105 % of control.
Take `c1ccc([As+](c2ccccc2)(c2ccccc2)c2ccccc2)cc1`: the T/C by setting is: (dose: 0.1 mg/kg/injection, schedule: Q04DX003 (ip), vehicle: saline) 110 % of control; (dose: 0.15 mg/kg/injection, schedule: Q01DX009 (ip), vehicle: saline) 105 % of control; (dose: 0.15 mg/kg/injection, schedule: Q04DX003 (ip), vehicle: saline) 105 % of control; (dose: 0.23 mg/kg/injection, schedule: Q01DX009 (ip), vehicle: saline) 116 % of control; (dose: 0.36 mg/kg/injection, schedule: Q04DX003 (ip), vehicle: saline) 110 % of control; (dose: 0.54 mg/kg/injection, schedule: Q01DX009 (ip), vehicle: saline) 122 % of control. In addition, the T/C (dose: 0.55 mg/kg/injection, schedule: Q04DX003 (ip), vehicle: saline) was 165 % of control; the T/C (dose: 2.4 mg/kg/injection, schedule: Q01DX009 (ip), vehicle: saline) is 184 % of control; the T/C (dose: 2.5 mg/kg/injection, schedule: Q01DX009 (ip), vehicle: saline) is 155 % of control; the T/C (dose: 3.75 mg/kg/injection, schedule: Q01DX009 (ip), vehicle: saline) is 160 % of control and 161 % of control and 184 % of control; the T/C (dose: 5.0 mg/kg/injection, schedule: Q04DX003 (ip), vehicle: saline) is 150 % of control and 160 % of control; the T/C (dose: 5.6 mg/kg/injection, schedule: Q01DX009 (ip), vehicle: saline) was 121 % of control. For the same compound, the T/C (dose: 5.63 mg/kg/injection, schedule: Q01DX009 (ip), vehicle: saline) was 165 % of control and the T/C (dose: 7.5 mg/kg/injection, schedule: Q04DX003 (ip), vehicle: saline) was 150 % of control.
Take `O=C(O)c1ccccc1-c1ccccc1C(=O)O`: the T/C was 95 % of control under setting [1], 104 % of control under setting [2] and 104 % of control under setting [3].
For the compound `CC(O)COCc1ccccc1` (centres undefined), the T/C is 100 % of control (dose: 100.0 mg/kg/injection, schedule: Q04DX003 (ip), vehicle: saline); 87 % of control (dose: 200.0 mg/kg/injection, schedule: Q04DX003 (ip), vehicle: saline); 108 % of control (dose: 400.0 mg/kg/injection, schedule: Q04DX003 (ip), vehicle: saline).
For `CCCC(=O)Oc1ccc2c(C)cc(=O)oc2c1`, the T/C runs as follows: under setting [1], 104 % of control; under setting [2], 90 % of control; under setting [3], 100 % of control.
With `Brc1ccc2c(c1)-c1ccccc1C1=NCCN12`, the T/C is 95 % of control (dose: 2.5 mg/kg/injection, schedule: Q01DX009 (ip), vehicle: Klucel (hydroxypropylcellulose) (HPC)); 104 % of control (dose: 5.0 mg/kg/injection, schedule: Q01DX009 (ip), vehicle: Klucel (hydroxypropylcellulose) (HPC)); 100 % of control (dose: 10.0 mg/kg/injection, schedule: Q01DX009 (ip), vehicle: Klucel (hydroxypropylcellulose) (HPC)); 95 % of control (dose: 20.0 mg/kg/injection, schedule: Q01DX009 (ip), vehicle: Klucel (hydroxypropylcellulose) (HPC)).
As to `NC(=S)c1c(N)n(C2OC(CO)C(O)C2O)c2ncnc(N)c12` (centres undefined), the T/C is, setting by setting: under setting [7], 114 % of control; under setting [8], 112 % of control.
Regarding `COc1ccc(C2CCc3cc(OC)c(OC)cc3C2NC=O)cc1OC` (centres undefined), the T/C is 87 % of control (dose: 120.0 mg/kg/injection, schedule: Q01DX009 (ip), vehicle: saline with Tween-80) and 95 % of control (dose: 240.0 mg/kg/injection, schedule: Q01DX009 (ip), vehicle: saline with Tween-80).
With `CC1(C)CC(C)(OC(=O)c2ccccc2)N=N1` (centres undefined), the T/C reads like this: (dose: 25.0 mg/kg/injection, schedule: Q01DX005 (ip), vehicle: other) 98 % of control; (dose: 50.0 mg/kg/injection, schedule: Q01DX005 (ip), vehicle: other) 98 % of control; (dose: 100.0 mg/kg/injection, schedule: Q01DX005 (ip), vehicle: other) 99 % of control; (dose: 200.0 mg/kg/injection, schedule: Q01DX005 (ip), vehicle: other) 99 % of control; (dose: 400.0 mg/kg/injection, schedule: Q01DX005 (ip), vehicle: other) 119 % of control.
In the case of `Nc1nc(SCc2ccc([N+](=O)[O-])cc2)c2[nH]cnc2n1`, the T/C was 110 % of control (dose: 100.0 mg/kg/injection, schedule: Q04DX003 (ip), vehicle: saline sonified); 110 % of control (dose: 200.0 mg/kg/injection, schedule: Q04DX003 (ip), vehicle: saline sonified); 100 % of control (dose: 400.0 mg/kg/injection, schedule: Q04DX003 (ip), vehicle: saline sonified).
In the case of `CCC1CCCCN1C` (centres undefined), the T/C reads like this: under setting [7], 100 % of control; under setting [8], 90 % of control; (dose: 50.0 mg/kg/injection, schedule: Q04DX003 (ip), vehicle: saline) 90 % of control.
For `C=CC1CC[N-]CC1.C=CC1CC[N-]CC1.C=CC1CC[N-]CC1.[Cl][Cr]([Cl])[Cl]`, the T/C is 100 % of control (dose: 12.5 mg/kg/injection, schedule: Q01DX009 (ip), vehicle: saline with Tween-80); 109 % of control (dose: 25.0 mg/kg/injection, schedule: Q01DX009 (ip), vehicle: saline with Tween-80); 104 % of control under setting [6].
For `CCOC1=NCCCCC1`, the T/C is 98 % of control (dose: 50.0 mg/kg/injection, schedule: Q01DX009 (ip), vehicle: saline); 95 % of control (dose: 100.0 mg/kg/injection, schedule: Q01DX009 (ip), vehicle: saline); 98 % of control (dose: 200.0 mg/kg/injection, schedule: Q01DX009 (ip), vehicle: saline); 98 % of control (dose: 400.0 mg/kg/injection, schedule: Q01DX009 (ip), vehicle: saline).
`COC(OC)c1nc(SC)[nH]c(=O)c1C`: the T/C is 91 % of control under setting [4]; 100 % of control under setting [1]; 95 % of control under setting [5]; 100 % of control under setting [2]; 95 % of control under setting [3].
On to `COc1cc(C(=O)NCC2(C)OC3(OC(=O)C2O)C(=O)N/C(=C(\C=O)C(C)=O)OC3C(O)C2CN2C(C)=O)c2cccc(C)c2c1` (centres undefined), for which the T/C is 245 % of control (dose: 0.05 mg/kg/injection, schedule: Q01DX010 (ip), vehicle: alkali diluted with saline); 300 % of control (dose: 0.1 mg/kg/injection, schedule: Q01DX010 (ip), vehicle: alkali diluted with saline); 180 % of control (dose: 12.5 micrograms/kg/injection, schedule: Q01DX010 (ip), vehicle: other); 155 % of control (dose: 25.0 micrograms/kg/injection, schedule: Q01DX010 (ip), vehicle: other); 195 % of control (dose: 50.0 micrograms/kg/injection, schedule: Q01DX010 (ip), vehicle: other).
